The source of these data is patent publication US10220040B2, “Compounds, compositions and methods useful for cholesterol mobilization” (Cerenis Therapeutics Holding SA, priority 2010, dated 2019).

The target of one experiment is human P2Y13 receptor (Homo sapiens (Human), UniProt Q9BPV8). Description: Ca++ flux agonist assay on P2Y13 receptor transfected 1321N1 cells. The experiment is classed as cell-based. The note with it: comma is decimal sign. As for the experimental part: Compounds were assayed for their agonist activity on P2Y13 GPCR transfected cells using a Ca++ flux assay (associated to fluorescent dye detection) with the Reference Compound as positive reference. Two cell lines, 1321N1-P2Y13 stably expressing human P2Y13 receptor, and 1321N1 parental cell line as control, were used in this assay. 1321N1 Parental and 1321N1 P2Y13 were seeded into T25 flasks at 3 million cells per flask, respectively. Cells were incubated at 37 degrees Celsius in 5% CO2 overnight. The day after, cells were transfected with Gqi5 protein using Fugene transfection reagent (Roche's Fugene Reagent).
Chain of human P2Y13 receptor (Q9BPV8 whole entry): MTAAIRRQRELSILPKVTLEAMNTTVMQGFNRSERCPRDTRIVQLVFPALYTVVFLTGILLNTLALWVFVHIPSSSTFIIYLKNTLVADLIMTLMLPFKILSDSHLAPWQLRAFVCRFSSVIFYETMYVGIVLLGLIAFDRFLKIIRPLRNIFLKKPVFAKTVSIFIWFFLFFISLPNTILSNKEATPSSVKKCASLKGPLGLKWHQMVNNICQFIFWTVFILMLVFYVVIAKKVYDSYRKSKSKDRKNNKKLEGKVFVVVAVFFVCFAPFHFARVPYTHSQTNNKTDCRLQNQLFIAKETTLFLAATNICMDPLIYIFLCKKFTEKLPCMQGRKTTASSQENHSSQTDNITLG
After 24 hours of transfection, cells were collected from flasks and seeded in 384-well plates at 8000 cells per well. The assays were carried out 48 hours after Gqi5 transfection.
Methods: The Ca++ flux assay was conducted according to the manufacturer's protocol (Molecular Devices FLIPR Calcium 4 Assay kit (R8142). Briefly, cell culture media were aspirated from the wells and replaced with 25 μL of Hank's buffer or PBS buffer. 25 μL of Ca++ dye was added into each assay well. The plate was incubated for 1 hour at 37° C. in 5% CO2. After the incubation, the plate was transferred to FlexStation III (FlexStation III (Molecular Devices)). The compounds were automatically injected into each well.

The test system of experiment [1] is HepG2 cells. The following applies: previously reported (Jacquet et al. 2005); positive control; cited from earlier work.
Experiment [2] deals with HepG2 cells. Nature of the experiment: In vitro HDL internalization in human hepatocytes (HepG2) cells. The following applies: compound 1 μM; 3H-labeled HDL 75 μg/ml, 10 min at 37° C. The experiment is classed as cell-based. How it is done: FIG. 3: Single-dose effect of the selected molecules on HDL internalization by HepG2 cells. Cells were incubated for 10 min at 37° C. with 75 μg/ml ^3H cholesterol Cholesteryl Oleate [Cholesteryl-1,2-^3H(N)] HDL, Reference Compound (100 nM) and illustrative compounds of the invention (1 μM). Data are expressed as the percentage of internalized radioactivity with respect to the control value (set as […]). *p<0.005, **p<0.0001.
The effect of illustrative compounds of the invention on HDL internalization was measured by an in vitro assay on HepG2 cells (FIG. 3). ^3H cholesterol Cholesteryl Oleate [Cholesteryl-1,2-^3H(N)] labeled HDL] (available from PerkinElmer http://www.perkinelmer.com/Catalog/Product/ID/NET746L001MC) was loaded on HepG2 cells in presence of illustrative compounds of the invention (final concentration 1 μM). […] It was determined that Compounds XIa, IIc, IIa and Ih (R-isomer) have a strong impact on HDL uptake by HepG2 cells; Compounds IIb, VIIa and VIIIa have a modest impact on HDL uptake by HepG2 cells.
^3H cholesterol Cholesteryl Oleate [Cholesteryl-1,2-^3H(N)] (Perkin Elmer) solution (250 μL) was dried and resuspended in acetone (250 μL). The solution was mixed with Lipoprotein delipidated serum (20 mL at 40 mg/mL) and DTNB (0.4 μM final concentration). HDL (7 mg) was added and incubated overnight at 4° C. on gentle rotation. The HDL was purified on KBr gradient as previously described.
Hepatocytes were plated at 300,000 cells/well in 6×-well plates. Two days later, the cells were washed once with DMEM and incubated for 1 hour in DMEM at 37° C. 75 μg of radio-labeled HDL (6500 dpm/μg) were added to the medium and incubated for 10 minutes at 37° C. The cells were washed once with DMEM (2 mL) and incubated for 1.5 hours in DMEM at 4° C., whereupon dissociation occurred. Then the cells were washed once more with cold DMEM (2 mL) and the incorporated cholesterol ether was retrieved from HepG2 cells by the addition of hexane:isopropanol (3:2) solution (1 mL).

For another experiment, the system named is C57Bl6 mice. Nature of the experiment: Dose response on bile physiology after single oral gavage in mice. The experiment is classed as in vivo. The note with it: oral gavage 0.003, 0.03 and 0.3 mg/kg, bile analyzed 6 hours later. As for the experimental part:
FIG. 16A-J: Increase of bile secretion following activation of P2Y13r pathway in mice. C57Bl/6J mice (n=10) were fasted for 2 h and then intravenously injected with Cangrelor® or Compound IIa (10 nmoles/kg). Four hours later the gallbladders were removed and analyzed for: Bile acids content (FIG. 16A); Bile cholesterol content (FIG. 16B). C57Bl/6J mice (n=10) were fasted for 2 h followed by single oral dose of P2Y13r agonist Compound IIa at 3, 30 or 300 μg/kg. Six hours later bile acids contents (FIG. 16C); bile cholesterol content (FIG. 16D), and bile acid content of liver (FIG. 16E) were evaluated using HPLC and enzymatic kits for gallbladers. Plasma samples were collected at time 0 and after 6 h of treatment, then analyzed for: total cholesterol (▴), unesterified cholesterol (●), esterified cholesterol (▪) and HDL cholesterol (▾) determined using either enzymatic kits or Lipoprint® for HDL cholesterol (FIG. 16F). C57Bl/6J mice (n=5) were intravenously injected with [^3H]-cholesterol-labelled mouse HDL (FIG. 16G), [^3H]-cholesteryl oleate-labelled mouse HDL (FIG. 16H) or [^3H]-cholesterol-labelled mouse LDL (FIG. 16I), and with Cangrelor® or Compound IIa (10 nmoles/kg). Radioactivity present in the liver was determined 2 hours later for the HDL or 5 hours later for the LDL. Cholesterol content of feces from treated animals (100 μg/kg) was determined by Charge aerosol detection (FIG. 16J). *p<0.05, **p<0.01.
The dose response after oral gavage was determined for illustrative compounds of the invention. The chosen doses were 0.003, 0.03 and 0.3 mg/kg. The selected compounds of the invention were administrated by oral gavage and 6 hours later the mice are sacrificed and the bile content was analyzed (FIGS. 6-11).
Bile acids were diluted in PBS (1:5000) and the concentration was measured according to the manufacturer protocol with slight modifications. Concentrations of bile acids in the standard curve were varied from […] and the enzymatic reaction was performed for 20 minutes. 4 μl of 1:5000 bile dilution was used for concentration determination.
Bile phospholipids were measured according to the manufacturer protocol. Briefly, the standards were varied from 0 to 20 μg/ml and 4 μl of bile was measured in the assay. The reaction was performed for 5 minutes at 37° C.
Bile phospholipids were measured according to the manufacturer protocol. Briefly, the standards were varied from 0 to 60 μg/ml and 10 μl of bile (dilution 1:10) was measured in the assay. The reaction was performed for 5 minutes at 37° C.

Setting [3] is: Table 4, measured from data of Figure 2.
[4] abbreviates: Table 3, measured from data of Figure 1.

As usually defined, the EC50 is the concentration giving half of the maximal effect. At human P2Y13 receptor (setting [3]), `CSCCNc1nc(SCCC(F)(F)F)nc2c1ncn2[C@@H]1O[C@H](COP(=O)(O)OP(=O)(O)C(Cl)(Cl)P(=O)(O)O)[C@@H](O)[C@H]1O` [Reference Compound, Dichloro-(((((2R,3S,4R,5R)-3,4-dihydroxy-5-(6-(2-(methylthio)ethylamino)-2-(3,3,3-trifluoropropylthio)-9H-purin-9-yl)tetrahydrofuran-2-yl)methoxy)(hydroxy)phosphoryloxy)(hydroxy)phosphoryl)-methylphosphonic acid, reference compound] showed an EC50 of 0.00632 µM. The “HDL uptake in HepG2 cells in vitro” value with HepG2 cells [1] is “increase the HDL uptake”.
For the molecule `COc1ccc(CN2CCC(c3cc(O)nc(N4CCCCC4)n3)CC2)cc1O` [Compound IIb, 6-[1-(3-Hydroxy-4-methoxybenzyl)-piperidin-4-yl]-2-piperidin-1-yl-pyrimidin-4-ol], a half-maximal response on human P2Y13 receptor (setting [3]) (EC50) required 0.299 µM. Further, the “impact on HDL uptake by HepG2 cells” value in the experiment on HepG2 cells [2] is listed as “modest impact”. Besides, in the experiment with C57Bl6 mice, the “dose at which an effect on bile acids, bile cholesterol and bile phospholipids was shown” value (“dose at which an effect on bile acids” below) is 300 µg/kg.
The matching figures for `COCCNCC(=O)Nc1ccc2c(c1)OCCO2` [Compound XIa, N-(2,3-Dihydrobenzo[1,4]dioxin-6-yl)-2-(2-methoxy-ethylamino)-acetamide]: 0.0489 µM, “strong impact” and 3 µg/kg.
Regarding `O=C(C1OCCc2ccccc21)N1CCC2(CC1)Nc1ccccc1-n1cccc12` (stereo not shown) [Compound VIIa, isochroman-1-yl(5′H-spiro[piperidine-4,4′-pyrrolo[1,2-a]quinoxaline]-1-yl)methanone], the EC50 at human P2Y13 receptor (setting [3]) was found to be 40.3 µM. The “impact on HDL uptake by HepG2 cells” value in the experiment with HepG2 cells [2] is “modest impact”. The “dose at which an effect on bile acids” value in the experiment on C57Bl6 mice amounted to 300 µg/kg.
Consider “6-[1-(2-methylaminopyrimidin-5-ylmethyl)-piperidin-4-yl]-2-piperidin-1-yl-pyrimidin-4-ol [Compound IIc]”, for which, on human P2Y13 receptor (setting [3]), the EC50 turned out to be 6.63 µM. Also, the “impact on HDL uptake by HepG2 cells” value in the experiment with HepG2 cells [2] is recorded as “strong impact”. Moreover, in the experiment on C57Bl6 mice, the “dose at which an effect on bile acids” value turned out to be 3 µg/kg.
As to `CCOc1cc(C2CC(=O)Nc3c2cnn3-c2ccccc2CC)ccc1O` (stereo not shown) [Compound VIIIa, 4-(3-Ethoxy-4-hydroxy-phenyl)-1-(2-ethyl-phenyl)-1,4,5,7-tetrahydro-pyrazolo[3,4-b]pyridin-6-one], the “dose at which an effect on bile acids” value in the experiment with C57Bl6 mice amounted to 3 µg/kg.
Turning to `CCOC(=O)C(C)(C)CCCC[C@H](c1ccccc1Cl)N1CCc2sccc2C1` [Compound Ih (R-isomer)], on human P2Y13 receptor (setting [4]), the EC50 was found to be 42.4 µM. In the experiment with HepG2 cells [2], the “impact on HDL uptake by HepG2 cells” value was “strong impact”.
Molecule `CCOC(=O)C(C)(C)CCCC[C@@H](c1ccccc1Cl)N1CCc2sccc2C1` [Compound Ih (S-isomer)] had an EC50 on human P2Y13 receptor (setting [4]) of 33.7 µM.
The same measure, in the same setting: the same measure for `CC(C)(CCCCCC(c1ccccc1Cl)N1CCC(O)/C(=C/C(=O)O)C1)C(=O)O` (stereo not shown) [Compound Va]: 55.2 µM.
